Results on three molecules are retold here after patent US6653074B1, “Methods for identifying agents which affect cellular morphology, locomotion and death” (Fox Chase Cancer Center, priority 1995, dated 2003).

One series relates to MCF-7 cells. Kind of series: Induction of apoptosis by TNF-α in MCF-7 cells, Western blot of caspase cleavage products and cell death. It counts as cell-based, human. Particulars: 48 hours. As to the method:
Induction of apoptosis. MCF-7 cells were plated and grown for 48 hours reaching a cell density of 70% prior to TNF-α addition. Media was replaced with fresh media supplemented with 100 ng/ml TNF-α. TNF-α treatment of stable cell lines was carried out by plating, cells directly into fresh DMEM plus 10% fetal bovine serum, with or without addition of tetracycline as indicated, containing 100 ng/ml TNF-α. Cells floating in the media were collected by centrifugation (1,200 rpm, 5 min) and extracted in combination with attached cells at the time points indicated, as described below. WeHI 231 cells were plated at a density of 5×10^4 cells/ml and treated with 1 μg/ml of α-IgM antibodies in complete media. Cells were collected by centrifugation and lysed as stated below.
Lysates were made as previously described (39; 41) in A-PTY buffer (50 mM HEPES, pH 7.5, 50 mM NaCl, 5 mM EDTA, 1% Triton X-100, 50 mM NaF, 10 mM Na4P2O7 and supplemented each extraction with 1 mM phenylmethylsulfonylfluoride, 0.01 mg/ml aprotinin and 0.01 mg/ml leupeptin). For adherent cultures, floating cells were pooled with the adherent cells prior to lysis. The cell pellet was then lysed in combination with lysates from the attached cells. […] Detection was via chemiluminescence as described (Law et al. (1996) Mol. Cell. Biol. 16: 3327-3337).
In general terms: Immunoblotting shows a protein as a band on a membrane.

The next series has as its system caspase 3. Kind of series: Caspase activity assay: Ac-DEVD-pNA cleavage by lysates of HEF1-expressing MCF-7 cells. Particulars: z-DEVD-fmk 0.5 μM; Ac-DEVD-pNA 250 μM; lysates of induced HEF1 cells; 24 hr; 405 nm. Format: biochemical, human. As for the experimental part: HEF1 expression and caspase activity. Stable cell lines containing parental tetracycline-regulatable vector with or without the full length HEF1 cDNA were generated in MCF-7 cells (Example 2). These were plated at a density of approximately 1×10^6 cells per 100 mm plate into fresh DMEM plus 10% fetal bovine serum in the absence of tetracycline and other selective antibiotics (induced) or in the presence of 1 μg/ml tetracycline (uninduced). Floating and attached cells were combined and extracted in caspase assay buffer (50 mM HEPES, pH 7.4, 100 mM NaCl, 0.1% CHAPS, 10 mM DTT, 1 mM EDTA, and 10% glycerol). Protein content of extracts was determined using the Bio-Rad protein assay as per the manufacturer's instructions (Bio-Rad, Hercules, Calif.). Caspase assays were performed as previously described (DiPietrantonio et al. (1999) Biochem Biophys Res Commun 255:477-82). […] Triplicate samples were incubated at room temperature and the release of pNA product was monitored at 405 nm a microtiter plate reader (Multiskan Plus, Labsystems, Helsinki. Finland). Initial readings were taken at the start of the incubation (T0) and final readings were taken at the completion of the reaction at 24 hr (T1). The change in absorbance over time was determined by subtracting T0 from T1 for each sample.

Series [1] deals with the molecule itself. Nature of the series: yeast two-hybrid analysis. From the text:
EGY48 yeast (Gyuris et al., 1993, supra) were transformed by standard methods with plasmids expressing LexA-fusions, activation-domain fusions, or both, together with the LexA operator-LacZ reporter SH18-34 (Gyuris et al., 1993, supra). For all fusion proteins, synthesis of a fusion protein of the correct length in yeast was confirmed by Western blot assays of yeast extracts (Samson et al., Cell 57: 1045–1052, 1989) using polyclonal antiserum specific for LexA (Brent and Ptashne, Nature 312: 612–615, 1984) or for hemagglutinin (Babco, Inc), as appropriate. Activation of the LacZ reporter was determined as previously described (Brent and Ptashne, Cell 43: 729–736, 1985). Beta-galactosidase assays were performed on three independent colonies, on three separate occasions, and values for particular plasmid combinations varied less than 25%. Activation of the LEU2 reporter was determined by observing the colony forming ability of yeast plated on complete minimal medium lacking leucine. The LexA-PRD/HD expressing plasmid has been described (Golemis and Brent, Mol. Cell Biol. 12: 3006–3014, 1992).
The possible functions for the novel carboxy-terminal domains were investigated further using two-hybrid analysis.

As to TNF-α, the “cell rounding and death, gross morphology” value in the series with MCF-7 cells (TNF-α alone, uninduced cells) was “low level of cell rounding and death”. Moreover, the cell death in the series with MCF-7 cells (TNF-α together with HEF1 induction) is given as about 100%. Moreover, the PARP cleavage entry in the series on MCF-7 cells (uninduced HEF1 cells and vector control MCF-7 cells, TNF-α) is reported as “detected”.

As for z-DEVD-fmk, the “activity towards the caspase 3 substrate Ac-DEVD-pNA in HEF1 expressing cells” value in the series with caspase 3 is listed as “potently blocked”.

B1: HEF1 carboxy-terminal domain (other)
chain: IMKQNKMQLEHHQLSQFQLLEQEITKPVENDISKWKPSQSLPTTNSGVSAQDRQLLCFYYDQCETHFISLLNAIDALFSCVSSAQPPRIFVAHSKFVILSAHKLVFIGDTLTRQVTAQDIRNKVMNSSNQLCEQLKTIVMATKMAALHYPSTTALQEMVHQVTDLSRNAQLFKRSLLEMATF
notes: Tested as a two-hybrid fusion; also called C-terminal effector domain; HEF1-Cterm182
For the molecule B1, the binding result in series [1] is “binds”.
